Results taken from patent US7410965B2, “Delayed release pharmaceutical composition containing 1-dimethyl-amino-3-(3-methoxyphenyl)-2-methyl-pentan-3-ol” (Gruenenthal GmbH, priority 2002, dated 2008).
Marks after values point to notes of the source that are not given here.

System: female Sprague-Dawley rats
Assay: Cystometry test system on conscious fresh rats
Type: in vivo, rat
Conditions: for BC Bladder Capacity, change compared to the baseline value / ICI Inter-Contraction Interval, change compared to the baseline value / TP Threshold Pressure, change compared to the baseline value: effect maximum; for effect on the bladder regulation (in words): cystometry, iv
Experimental: Cystometry investigations were carried out on fresh female Sprague-Dawley rats according to the method of Ishizuka et al. ((1997), Naunyn-Schmiedeberg's Arch. Pharmacol. 355: 787-793). Three days after implantation of bladder and venous catheters the animals were investigated in the conscious state while freely moving. The bladder catheter was connected to a pressure gauge and an injection pump. The animals were placed in metabolic cages that enabled the volume of urine to be measured. Physiological saline solution was infused (10 ml/hour) into the emptied bladder and the bladder pressure and volume of urine were continuously recorded. After a stabilisation phase a 20-minute phase was recorded that was characterised by normal, reproducible micturition cycles. The following parameters among others were measured: • threshold pressure TP, bladder pressure immediately before micturition, • bladder capacity BC, residual volume after prior micturition plus volume of infused solution during the filling phase, • intercontraction interval ICI, i.e. the time interval between consecutive micturition.
An increase in the threshold pressure (TP) indicates an important therapeutic effect in one of the medical conditions covered by the invention. Also, the intercontraction interval (ICI) is an important parameter for measuring the physiological effectiveness of a substance in the treatment of urinary incontinence, as is the bladder capacity (BC). In this connection, on account of the widely differing causes of the symptoms of these disease patterns it is not necessary to influence positively all three parameters in order for a medicament to be effective.
After recording three reproducible micturition cycles to provide a baseline value, the test substances (1 (1.0 mg/kg), 2 (0.1; 0.3 and 0.5 mg/kg) and 21 (0.5 mg/kg), in a vehicle comprising 0.9% NaCl were applied intravenously and the effect on the cystometric parameters was recorded at 90 to 120 minutes. In the effect maximum the mean value of 3 micturition cycles was determined and recorded as a percentage change compared to the baseline value (Table 1).

| SMILES | BC Bladder Capacity, change compared to the baseline value (0.5 mg/kg iv) | ICI Inter-Contraction Interval, change compared to the baseline value (0.5 mg/kg iv) | TP Threshold Pressure, change compared to the baseline value (0.5 mg/kg iv) | effect on the bladder regulation (in words) | BC Bladder Capacity, change compared to the baseline value (0.1 mg/kg iv) | ICI Inter-Contraction Interval, change compared to the baseline value (0.1 mg/kg iv) | TP Threshold Pressure, change compared to the baseline value (0.1 mg/kg iv) | BC Bladder Capacity, change compared to the baseline value (0.3 mg/kg iv) | ICI Inter-Contraction Interval, change compared to the baseline value (0.3 mg/kg iv) | TP Threshold Pressure, change compared to the baseline value (0.3 mg/kg iv) | BC Bladder Capacity, change compared to the baseline value (1.0 mg/kg iv) | ICI Inter-Contraction Interval, change compared to the baseline value (1.0 mg/kg iv) | TP Threshold Pressure, change compared to the baseline value (1.0 mg/kg iv) |
| --- | --- | --- | --- | --- | --- | --- | --- | --- | --- | --- | --- | --- | --- |
| CC[C@@](O)(c1cccc(OC)c1)[C@@H](C)CN(C)C.Cl [Compound 21, (−)-(2S,3S)-1-dimethylamino-3-(3-methoxyphenyl)-2-methylpentan-3-ol; hydrochloride] | +3% | +10% | −1.1% | does not exhibit such a marked effect | – | – | – | – | – | – | – | – | – |
| CC[C@](O)(c1cccc(OC)c1)[C@H](C)CN(C)C.Cl [Compound 2, (+)-(2R,3R)-1-dimethylamino-3-(3-methoxyphenyl)-2-methylpentan-3-ol; hydrochloride] | +20.6%* | +28.6%** | +77.5%** | very effective | +7.8% | +15.6% | +28.5%** | +33%* | +28%* | +122%** | – | – | – |
| CC[C@](O)(c1cccc(OC)c1)[C@H](C)CN(C)C.Cl (racemic) [Compound 1, (2RS,3RS)-1-dimethylamino-3-(3-methoxyphenyl)-2-methylpentan-3-ol; hydrochloride] | – | – | – | – | – | – | – | – | – | – | +31%*** | +42% | +94%** |
